The supplement of paper PMC9013687

Tests used:
Danio rerio embryo [1] = system: Danio rerio embryo
Protocol: (§1)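 Zebrafish embryos (UFZ-OBI strain) were exposed from 2 hpf for 48 h (2 dpf) or 96 h (4 dpf) at 28 °C; spontaneous tail coiling was scored at 25 hpf. Morphological features from automated image analysis (FishInspector), heart rate and locomotor response were fitted with drc models. Quantal endpoints were dichotomised at 2.5 SD from controls and fitted with a log-logistic model; heart rate, pigmentation and STC were normalised to the replicate control mean. Betamethasone was tested as betamethasone dipropionate, diflorasone as diflorasone diacetate.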

Danio rerio embryo [2] = test: EC50 Pericard size_Increase
Protocol: as §1

Danio rerio embryo [3] = test: EC50 Eye-jaw distance_Decrease; conditions: exposure time: 4 dpf
Protocol: as §1

Danio rerio embryo [4] = test: EC20 Any effect; higher = less potent
Protocol: as §1

Danio rerio embryo [5] = test: EC10 Any effect; higher = less potent; conditions: exposure time: 2 dpf
Protocol: as §1

Danio rerio embryo [6] = test: EC10 Pigmentation decrease; higher = less potent; conditions: exposure time: 4 dpf
Protocol: as §1

Danio rerio embryo [7] = test: EC20 Pigmentation decrease; higher = less potent; conditions: exposure time: 4 dpf
Protocol: as §1

Danio rerio embryo [8] = test: EC20 Pericard size_Increase; higher = less potent
Protocol: as §1

Danio rerio embryo [9] = test: EC10 Pericard size_Increase; higher = less potent
Protocol: as §1

Danio rerio embryo [10] = test: EC20 Eye-jaw distance_Decrease; higher = less potent; conditions: exposure time: 4 dpf
Protocol: as §1

Danio rerio embryo [11] = test: EC10 Eye-jaw distance_Decrease; higher = less potent; conditions: exposure time: 4 dpf
Protocol: as §1

Danio rerio embryo [12] = test: spontaneous tail coiling frequency (coils/min/embryo); higher = more spontaneous movement; conditions: 25 hpf
Protocol: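 Spontaneous tail coilings of zebrafish embryos exposed from 2 hpf were recorded at 24-25 hpf in 1-min videos and detected by a KNIME workflow from grey-value variance. Betamethasone was tested as the dipropionate, diflorasone as the diacetate.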

Danio rerio embryo [13] = conditions: exposure time: 4 dpf
Protocol: as §1

Danio rerio embryo [14] = test: EC50 Bladder size_Decrease; conditions: exposure time: 4 dpf
Protocol: as §1

Danio rerio embryo [15] = test: EC10 Lack of SB; higher = less potent; conditions: exposure time: 4 dpf
Protocol: as §1

Danio rerio embryo [16] = test: EC20 Lack of SB; higher = less potent; conditions: exposure time: 4 dpf
Protocol: as §1

Danio rerio embryo [17] = test: EC10 Bladder size_Decrease; higher = less potent; conditions: exposure time: 4 dpf
Protocol: as §1

Danio rerio embryo [18] = test: EC20 Bladder size_Decrease; higher = less potent; conditions: exposure time: 4 dpf
Protocol: as §1

CCC(=O)OCC(=O)[C@@]1(OC(=O)CC)[C@@H](C)C[C@H]2[C@@H]3CCC4=CC(=O)C=C[C@]4(C)[C@@]3(F)[C@@H](O)C[C@@]21C [betamethasone dipropionate]
Conditions	EC10 Pericard size Increase [µM]	EC20 Any effect [nM]	EC20 Pericard size Increase [µM]	EC50 Any effect [nM]	EC50 Pericard size Increase [nM]	spontaneous tail coiling frequency
Danio rerio embryo [1], exposure time: 2 dpf	–	–	–	882	–	–
Danio rerio embryo [1], exposure time: 4 dpf	–	–	–	253	–	–
Danio rerio embryo [2], exposure time: 2 dpf	–	–	–	–	10100	–
Danio rerio embryo [2], exposure time: 4 dpf	–	–	–	–	1350	–
Danio rerio embryo [4], exposure time: 2 dpf	–	4.31	–	–	–	–
Danio rerio embryo [4], exposure time: 4 dpf	–	0.298	–	–	–	–
Danio rerio embryo [8], exposure time: 2 dpf	–	–	0.437	–	–	–
Danio rerio embryo [8], exposure time: 4 dpf	–	–	0.000209	–	–	–
Danio rerio embryo [9], exposure time: 2 dpf	0.07	–	–	–	–	–
Danio rerio embryo [12], 0.02 µM	–	–	–	–	–	2.32
Danio rerio embryo [12], 0.099 µM	–	–	–	–	–	1.86
Danio rerio embryo [12], 0.198 µM	–	–	–	–	–	2.45
Danio rerio embryo [12], 0.991 µM	–	–	–	–	–	3.42
Danio rerio embryo [12], 1.24 µM	–	–	–	–	–	3.65
Danio rerio embryo [12], 2.48 µM	–	–	–	–	–	4
Danio rerio embryo [12], 3.964 µM	–	–	–	–	–	2.3
Danio rerio embryo [12], 4.95 µM	–	–	–	–	–	3.4
Danio rerio embryo [12], 9.909 µM	–	–	–	–	–	1.97
Danio rerio embryo [12], 9.91 µM	–	–	–	–	–	3.29
Danio rerio embryo [12], 19.82 µM	–	–	–	–	–	3.34

Conditions	EC10 Any effect [pM]	EC10 Eye-jaw distance Decrease [nM]	EC10 Pigmentation decrease [µM]	EC20 Eye-jaw distance Decrease [µM]	EC20 Pigmentation decrease [µM]	EC50 Eye-jaw distance Decrease [µM]
Danio rerio embryo [3]	–	–	–	–	–	13.1
Danio rerio embryo [5]	192	–	–	–	–	–
Danio rerio embryo [6]	–	–	1.61	–	–	–
Danio rerio embryo [7]	–	–	–	–	8.44	–
Danio rerio embryo [10]	–	–	–	0.064	–	–
Danio rerio embryo [11]	–	3	–	–	–	–

CC(=O)OCC(=O)[C@@]1(OC(C)=O)[C@@H](C)C[C@H]2[C@@H]3C[C@H](F)C4=CC(=O)C=C[C@]4(C)[C@@]3(F)[C@@H](O)C[C@@]21C [diflorasone diacetate]
Conditions	EC10 Bladder size Decrease [µM]	EC10 Eye-jaw distance Decrease [nM]	EC10 Lack of SB [µM]	EC20 Bladder size Decrease [µM]	EC20 Eye-jaw distance Decrease [µM]	EC20 Lack of SB [µM]	EC50 Bladder size Decrease [nM]	EC50 Eye-jaw distance Decrease [µM]	EC50 Lack of SB [nM]
Danio rerio embryo [3]	–	–	–	–	–	–	–	2.38	–
Danio rerio embryo [10]	–	–	–	–	0.041	–	–	–	–
Danio rerio embryo [11]	–	4	–	–	–	–	–	–	–
Danio rerio embryo [13]	–	–	–	–	–	–	–	–	379
Danio rerio embryo [14]	–	–	–	–	–	–	176	–	–
Danio rerio embryo [15]	–	–	0.045	–	–	–	–	–	–
Danio rerio embryo [16]	–	–	–	–	–	0.099	–	–	–
Danio rerio embryo [17]	0.037	–	–	–	–	–	–	–	–
Danio rerio embryo [18]	–	–	–	0.066	–	–	–	–	–

Conditions	EC10 Pericard size Increase [µM]	EC20 Pericard size Increase [µM]	EC50 Pericard size Increase [nM]	spontaneous tail coiling frequency
Danio rerio embryo [2], exposure time: 4 dpf	–	–	2080	–
Danio rerio embryo [8], exposure time: 4 dpf	–	0.127	–	–
Danio rerio embryo [9], exposure time: 4 dpf	0.025	–	–	–
Danio rerio embryo [12], 0.63 µM	–	–	–	2.46
Danio rerio embryo [12], 1.2 µM	–	–	–	2.87
Danio rerio embryo [12], 1.26 µM	–	–	–	2.52
Danio rerio embryo [12], 2 µM	–	–	–	2.33
Danio rerio embryo [12], 2.5 µM	–	–	–	2.17
Danio rerio embryo [12], 3 µM	–	–	–	1.89
Danio rerio embryo [12], 4 µM	–	–	–	2.36
Danio rerio embryo [12], 6 µM	–	–	–	2.7
Danio rerio embryo [12], 10.1 µM	–	–	–	1.56
